Measured values: paper PMC11073913 (Archiv der Pharmazie, 2024)
Several values for one entry are separate records, joined by “and”; a condition that tells them apart may be missing. Equal entries are not always repeated. Where two headings read alike, the source gives them in different places.

Experiments:
[1] = molecular target: T1, ovine COX-1 (Ovis aries, UniProt P05979); assay: In vitro COX-1 inhibitory assay; type: biochemical
T1 sequence (P05979 25-600): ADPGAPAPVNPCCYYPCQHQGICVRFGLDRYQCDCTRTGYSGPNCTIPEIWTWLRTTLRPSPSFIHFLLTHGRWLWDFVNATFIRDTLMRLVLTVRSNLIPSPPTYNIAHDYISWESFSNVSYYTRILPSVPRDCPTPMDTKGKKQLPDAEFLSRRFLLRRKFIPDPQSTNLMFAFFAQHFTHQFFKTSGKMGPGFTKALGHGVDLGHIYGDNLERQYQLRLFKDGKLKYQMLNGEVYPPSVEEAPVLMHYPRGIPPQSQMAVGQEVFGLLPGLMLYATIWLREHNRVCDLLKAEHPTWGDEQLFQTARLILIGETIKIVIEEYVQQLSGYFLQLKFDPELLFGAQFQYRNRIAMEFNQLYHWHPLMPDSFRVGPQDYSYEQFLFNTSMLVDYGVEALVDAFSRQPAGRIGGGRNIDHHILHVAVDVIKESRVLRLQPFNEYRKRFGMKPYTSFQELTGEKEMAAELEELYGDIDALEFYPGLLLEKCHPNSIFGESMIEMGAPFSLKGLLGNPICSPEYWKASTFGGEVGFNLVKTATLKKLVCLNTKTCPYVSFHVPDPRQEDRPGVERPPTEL

[2] = molecular target: T2, human recombinant COX-2 (Homo sapiens, UniProt P35354); assay: In vitro COX-2 inhibitory assay; type: biochemical; settings: for Enhancement of anti-COX-2 activity by p-Cl on benzylidine: compared with unsubstituted compounds 4b, 4c, 4g, 4h respectively
T2 sequence (P35354 18-604): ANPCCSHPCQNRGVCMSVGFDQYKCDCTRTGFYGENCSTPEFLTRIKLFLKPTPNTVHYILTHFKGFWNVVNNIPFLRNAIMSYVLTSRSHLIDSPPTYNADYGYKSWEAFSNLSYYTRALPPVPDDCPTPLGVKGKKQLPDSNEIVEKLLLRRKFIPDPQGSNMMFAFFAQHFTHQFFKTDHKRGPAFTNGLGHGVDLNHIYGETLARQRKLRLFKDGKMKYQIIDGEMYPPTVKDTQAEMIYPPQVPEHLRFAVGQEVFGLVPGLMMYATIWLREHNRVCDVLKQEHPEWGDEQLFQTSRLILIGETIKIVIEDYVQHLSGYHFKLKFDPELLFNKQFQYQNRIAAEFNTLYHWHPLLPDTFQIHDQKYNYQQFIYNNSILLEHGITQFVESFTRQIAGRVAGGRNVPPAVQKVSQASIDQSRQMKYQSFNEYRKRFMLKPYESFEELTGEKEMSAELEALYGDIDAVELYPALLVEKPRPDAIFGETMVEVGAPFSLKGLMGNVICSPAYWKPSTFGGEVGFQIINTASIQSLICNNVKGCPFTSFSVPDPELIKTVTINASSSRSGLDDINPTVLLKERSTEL

[3] = molecular target: T3, soybean 15-LOX (Glycine max, UniProt P08170); assay: In vitro 15-LOX inhibitory assay; type: biochemical
T3 sequence (P08170 1-839): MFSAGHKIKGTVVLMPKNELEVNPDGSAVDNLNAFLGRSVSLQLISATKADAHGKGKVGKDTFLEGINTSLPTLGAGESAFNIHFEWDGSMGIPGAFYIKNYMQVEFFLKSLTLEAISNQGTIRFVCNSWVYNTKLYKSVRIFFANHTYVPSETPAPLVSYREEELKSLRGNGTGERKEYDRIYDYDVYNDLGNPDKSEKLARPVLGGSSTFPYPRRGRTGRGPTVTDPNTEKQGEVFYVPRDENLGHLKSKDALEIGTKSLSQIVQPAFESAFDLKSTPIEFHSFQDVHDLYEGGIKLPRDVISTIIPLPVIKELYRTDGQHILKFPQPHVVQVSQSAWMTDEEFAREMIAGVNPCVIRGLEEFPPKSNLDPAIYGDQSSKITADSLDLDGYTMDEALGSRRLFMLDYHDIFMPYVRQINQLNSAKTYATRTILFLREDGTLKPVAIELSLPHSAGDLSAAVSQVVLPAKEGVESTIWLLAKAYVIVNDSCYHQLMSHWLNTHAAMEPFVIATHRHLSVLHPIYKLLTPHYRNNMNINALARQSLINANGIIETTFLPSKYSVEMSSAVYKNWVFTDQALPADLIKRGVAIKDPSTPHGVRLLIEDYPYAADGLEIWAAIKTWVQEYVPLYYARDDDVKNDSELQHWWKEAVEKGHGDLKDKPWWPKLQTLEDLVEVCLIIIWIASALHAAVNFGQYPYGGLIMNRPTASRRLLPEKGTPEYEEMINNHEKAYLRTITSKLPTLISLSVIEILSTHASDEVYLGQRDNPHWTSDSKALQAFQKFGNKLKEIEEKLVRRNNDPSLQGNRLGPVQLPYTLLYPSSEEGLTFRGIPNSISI

[4] = test system: LPS-induced ROS production in RAW 264.7 cells; settings: read-out: ROS (IC50), LPS (1 μg/mL) 18 h, mean ± SEM
[5] = test system: LPS-induced TNF-α production in RAW 264.7 cells; settings: for TNF-α level: cells treated with 25 μM compound
[6] = test system: LPS-induced IL-6 production in RAW 264.7 cells; settings: LPS-activated RAW 264.7; for IL-6 level: cells treated with 25 μM compound
[7] = test system: NF-κB activation in RAW 264.7 macrophages; assay: NF-κB activation in LPS-activated RAW 264.7 macrophages; type: cell-based, murine; settings: 25 μM pretreatment, Western blot
[8] = Cell viability assay; type: cell-based, murine; settings: mouse, RAW 264.7 macrophage cells
[9] = test system: LPS-induced ROS production in RAW 264.7 cells; assay: cells; settings: Mus musculus, RAW264.7, 18 h, read-out: ROS (IC50)
[10] = read-out: COX1, IC50, ovine COX-1, mean ± SEM
[11] = read-out: 15-LOX IC50, soybean 15-LOX

Compound | IC50 [1, 10] | SI (Selectivity index = COX-1 IC50/COX-2 IC50) [2] | IC50 ([2]; read-out: COX2, IC50) | IC50 [3, 11] | IC50 [4] | TNF-α level ([5]; LPS-activated RAW 264.7) | IL-6 level [6] | IC50 [1] | IC50 [2] | SI (Selectivity index = COX-1 IC50/COX-2 IC50) ([2]; COX-1 IC50/COX-2 IC50) | Enhancement of anti-COX-2 activity by p-Cl on benzylidine [2] | IC50 [3] | LPS-mediated increase in NF-κB activation (phospho/total NF-κB) [7] | viability at 50 µM [8] | IC50 [9] | TNF-α inhibition, fold more potent than celecoxib ([5]; vs celecoxib) | Lowering of TNF-α level ([5]; LPS-activated RAW 264.7) | Lowering of IL-6 level [6]
O=C(CSC1=N/C(=C\c2ccccc2)C(=O)N1c1ccccc1)Nc1ccc(F)cc1 [Compound 4b, (Z)-2-[(4-Benzylidene-5-oxo-1-phenyl-4,5-dihydro-1H-imidazol-2-yl)thio]-N-(4-fluorophenyl) acetamide] | 12.6 ± 1.78 µM | 99.06 | 0.13 ± 0.068 µM | 3.13 ± 1.49 µM | 23.8 ± 1.44 µM | 51.63 ± 10.35 pg/mL | 50.90 ± 10.35 pg/mL |  |  |  |  |  |  |  |  |  |  | 
O=C(CSC1=N/C(=C\c2ccc(Cl)cc2)C(=O)N1c1ccccc1)Nc1ccc(Cl)cc1 [Compound 4l, (Z)-2-{[4-(4-Chlorobenzylidene)-5-oxo-1-phenyl-4,5-dihydro-1H-imidazol-2-yl]thio}-N-(4-chlorophenyl)acetamide] |  |  |  |  |  | 26.47 ± 5.33 pg/mL | 25.57 pg/mL and 25.75 ± 5.33 pg/mL | 12.3 ± 1.84 µM | 0.08 ± 0.035 µM | 154.73 | 1.75 folds | 2.69 ± 1.29 µM | attenuated | 83 to 105% | 52.7 ± 1.35 µM |  |  | 
O=C(CSC1=N/C(=C\c2ccccc2)C(=O)N1c1ccccc1)Nc1ccc(Br)cc1 [Compound 4d, (Z)-2-[(4-Benzylidene-5-oxo-1-phenyl-4,5-dihydro-1H-imidazol-2-yl)thio]-N-(4-bromophenyl) acetamide] | 8.14 ± 1.53 µM | 64.13 | 0.13 ± 0.071 µM | 5.14 ± 2.48 µM | 62.1 ± 1.51 µM | 27.08 pg/mL and 27.08 ± 4.22 pg/mL | 26.35 pg/mL and 26.35 ± 4.22 pg/mL |  |  |  |  |  |  |  |  |  |  | 
COc1cc(NC(=O)CSC2=N/C(=C\c3ccccc3)C(=O)N2c2ccccc2)cc(OC)c1OC [Compound 4g, (Z)-2-[(4-Benzylidene-5-oxo-1-phenyl-4,5-dihydro-1H-imidazol-2-yl)thio]-N-(3,4,5-trimethoxyphenyl) acetamide] | 9.83 ± 1.65 µM | 68.07 | 0.14 ± 0.073 µM | 2.82 ± 1.27 µM | 65.9 ± 1.55 µM | 12.23 pg/mL and 12.23 ± 3.09 pg/mL | 11.51 ± 3.09 pg/mL |  |  |  |  |  |  |  |  | ~2 fold |  | 
Cc1ccc(NC(=O)CSC2=N/C(=C\c3ccccc3)C(=O)N2c2ccccc2)cc1 [Compound 4e, (Z)-2-[(4-Benzylidene-5-oxo-1-phenyl-4,5-dihydro-1H-imidazol-2-yl)thio]-N-(4-tolyl) acetamide] | 9.12 ± 1.4 µM | 90.85 | 0.1 ± 0.048 µM | 5.14 ± 2.48 µM | 118 ± 2.36 µM | 58.19 ± 23.16 pg/mL | 34.33 ± 1.82 pg/mL |  |  |  |  |  |  |  |  |  |  | 
COc1ccc(NC(=O)CSC2=N/C(=C\c3ccccc3)C(=O)N2c2ccccc2)cc1 [Compound 4f, (Z)-2-[(4-Benzylidene-5-oxo-1-phenyl-4,5-dihydro-1H-imidazol-2-yl)thio]-N-(4-methoxyphenyl)acetamide] |  |  |  |  |  | 22.94 ± 6.32 pg/mL | 22.21 pg/mL and 22.21 ± 6.32 pg/mL | 11 ± 1.53 µM | 0.08 ± 0.04 µM | 131.59 |  | 3.96 ± 1.49 µM | attenuated | 83 to 105% | 22.8 ± 1.32 µM |  | ~ 80% | ~ 80%
O=C(CSC1=N/C(=C\c2ccccc2)C(=O)N1c1ccccc1)Nc1ccc(Cl)cc1 [Compound 4c, (Z)-2-[(4-Benzylidene-5-oxo-1-phenyl-4,5-dihydro-1H-imidazol-2-yl)thio]-N-(4-chlorophenyl) acetamide] | 9.12 ± 1.4 µM | 64.62 | 0.14 ± 0.062 µM | 3.24 ± 1.46 µM | 61.6 ± 1.51 µM | 49.81 ± 23.20 pg/mL | 49.08 ± 23.20 pg/mL |  |  |  |  |  |  |  |  |  |  | 
O=C(CSC1=N/C(=C\c2ccccc2)C(=O)N1c1ccccc1)Nc1cccc(C(F)(F)F)c1 [Compound 4h, (Z)-2-[(4-Benzylidene-5-oxo-1-phenyl-4,5-dihydro-1H-imidazol-2-yl)thio]-N-[3-(trifluoromethyl)phenyl]acetamide] |  |  |  |  |  | 24.15 ± 1.05 pg/mL | 23.42 pg/mL and 23.42 ± 1.05 pg/mL | 11.1 ± 1.63 µM | 0.28 ± 0.155 µM | 39.99 |  | 5.71 ± 2.56 µM |  |  | 45.4 ± 1.23 µM |  |  | 
O=C(CSC1=N/C(=C\c2ccc(Cl)cc2)C(=O)N1c1ccccc1)Nc1ccc(F)cc1 [Compound 4k, (Z)-2-{[4-(4-Chlorobenzylidene)-5-oxo-1-phenyl-4,5-dihydro-1H-imidazol-2-yl]thio}-N-(4-fluorophenyl)acetamide] |  |  |  |  |  | 28.29 ± 14.76 pg/mL | 27.57 ± 14.76 pg/mL | 13 ± 1.82 µM | 0.07 ± 0.034 µM | 186.28 | 1.85 folds | 2.17 ± 1.04 µM |  | 83 to 105% | 71 ± 1.55 µM |  |  | 
